Source: patent US12331040B2 (Karyopharm Therapeutics Inc., priority 2013, dated 2025)
Like-named read-outs stand apart in the source and are kept apart here.

Assays:
Assay in all cases: MTT cell proliferation assay
Type in all cases: cell-based
3T3 cells = conditions: Mus musculus, NIH3T3, approximately 64-72 hours incubation
Description: (§1) The MTT cell proliferation assay was used to study the cytotoxic properties of the compounds. The assay was performed according to the method described by Roche Molecular Biochemicals, with minor modifications. The assay is based on the cleavage of the tetrazolium salt, MTT, in the presence of an electron-coupling reagent. The water-insoluble formazan salt produced must be solubilized in an additional step. Cells grown in a 96-well tissue culture plate were incubated with the MTT solution for approximately 4 hours. After this incubation period, a water-insoluble formazan dye formed. After solubilization, the formazan dye was quantitated using a scanning multi-well spectrophotometer (ELISA reader). […] The cells were seeded at 5,000-10,000 cells in each well of 96-well plate in 100 μL of fresh culture medium and were allowed to attach overnight. The stock solutions of the compounds were diluted in 100 μL cell culture medium to obtain eight concentrations of each test compound, ranging from 1 nM to 30 μM. […] All optical densities were measured at 490 nm using a Vmax Kinetic Microplate Reader (Molecular Devices). In most cases, the assay was performed in duplicate and the results were presented as a mean percent inhibition to the negative control±SE. The following formula was used to calculate the percent of inhibition: Inhibition (%)=(1−(ODo/OD))×100.
(§2) The compounds were tested against MS751, Z138 and 3T3 cells. The MS751 cell line is derived from a metastasis to lymph node of human cervix from a patient diagnosed with squamous cell carcinoma of the cervix. The Z138 cell line is a mature B-cell acute lymphoblastic leukemia cell line derived from a patient with chronic lymphocytic leukemia. 3T3 cells are standard fibroblast cells; they were originally isolated from Swiss mouse embryo tissue.

Z138 cells = conditions: Homo sapiens, Z-138, Z138 cells, approximately 64-72 hours incubation
Description: as §1, §2

MS751 cells = conditions: Homo sapiens, MS751, MS751 cells, approximately 64-72 hours incubation
Description: as §1, §2

[1] = read-out: MTT Assay IC50 MS-751
[2] = read-out: MTT Assay IC50, Z-138
[3] = read-out: MTT Assay IC50, MS-751

| SMILES | IC50 (3T3 cells; read-out: MTT Assay IC50 3T3) | IC50 (Z138 cells; read-out: MTT Assay IC50 Z-138) | IC50 (MS751 cells; [1]) | IC50 (3T3 cells; read-out: MTT Assay IC50, 3T3) | IC50 (Z138 cells; [2]) | IC50 (MS751 cells; [3]) |
| --- | --- | --- | --- | --- | --- | --- |
| CN1CCN(C(=O)c2ccc(-c3cc(Cl)c4oc(CNC(=O)/C=C/c5ccc(N)nc5)cc4c3)cc2)CC1 [Compound 576, (E)-3-(6-aminopyridin-3-yl)-N-((7-chloro-5-(4-(4-methylpiperazine-1-carbonyl)phenyl)benzofuran-2-yl)methyl)acrylamide] | > 10000 nM | 100 to 5000 nM | 100 to 5000 nM |  |  |  |
| O=C(/C=C/c1cccnc1)NCc1cc2cc(-c3ccc(C(=O)N4CCC(F)(F)CC4)cn3)cc(-c3cccnc3)c2o1 [Compound 673, (E)-N-((5-(5-(4,4-difluoropiperidine-1-carbonyl)pyridin-2-yl)-7-(pyridin-3-yl)benzofuran-2-yl)methyl)-3-(pyridin-3-yl)acrylamide] |  |  |  | < 100 nM | < 100 nM | < 100 nM |
| CC(=O)c1ccc(-c2cc(Cl)c3oc(CNC(=O)/C=C/c4ccc(N)nc4)cc3c2)s1 [Compound 500, (E)-N-((5-(5-acetylthiophen-2-yl)-7-chlorobenzofuran-2-yl)methyl)-3-(6-aminopyridin-3-yl) acrylamide] | > 10000 nM | 100 to 5000 nM | 100 to 5000 nM |  |  |  |
| Nc1ccc(/C=C/C(=O)NCc2cc3cc(-c4ccc(C(O)c5ccc(F)cc5)cn4)cc(-c4ccc(F)cc4)c3o2)cn1 (stereo not drawn) [Compound 704, (E)-3-(6-aminopyridin-3-yl)-N-((7-(4-fluorophenyl)-5-(5-((4-fluorophenyl)(hydroxy)methyl)pyridin-2-yl)benzofuran-2-yl)methyl)acrylamide] |  |  |  | > 10000 nM | 100 to 5000 nM | 100 to 5000 nM |
| Nc1ccc(/C=C/C(=S)NCc2cc3cc(-c4ccc(C(=S)N5CCC(F)(F)CC5)cn4)cc(C(F)(F)F)c3o2)cn1 [Compound 678, (E)-3-(6-aminopyridin-3-yl)-N-((5-(5-(4,4-difluoropiperidine-1-carbonothioyl)pyridin-2-yl)-7-(trifluoromethyl)benzofuran-2-yl)methyl)prop-2-enethioamide] |  |  |  | > 10000 nM | 100 to 5000 nM | 100 to 5000 nM |
| O=C(/C=C/c1cccnc1)NCc1cc2cc(-c3ccc(C(=O)N4CCC(F)(F)CC4)cc3)cc(-c3cccc(F)c3)c2o1 [Compound 727, (E)-N-((5-(4-(4,4-difluoropiperidine-1-carbonyl)phenyl)-7-(3-fluorophenyl)benzofuran-2-yl)methyl)-3-(pyridin-3-yl)acrylamide] |  |  |  | < 100 nM | < 100 nM | < 100 nM |
| Nc1ccc(/C=C/C(=O)NCc2cc3cc(-c4ccc(C(=O)N5CCC(F)(F)CC5)cc4)cc(OC(F)(F)F)c3o2)cn1 [Compound 686, (E)-3-(6-aminopyridin-3-yl)-N-((5-(4-(4,4-difluoropiperidine-1-carbonyl)phenyl)-7-(trifluoromethoxy)benzofuran-2-yl)methyl)acrylamide] |  |  |  | > 10000 nM | 100 to 5000 nM | 100 to 5000 nM |
| Nc1ccc(/C=C/C(=O)NCc2cc3cc(-c4ccc(C(=O)N5CC[C@H](Cl)C5)cc4)cc(C(F)(F)F)c3o2)cn1 [Compound 610, (S,E)-3-(6-aminopyridin-3-yl)-N-((5-(4-(3-chloropyrrolidine-1-carbonyl)phenyl)-7-(trifluoromethyl)benzofuran-2-yl)methyl)acrylamide] | > 10000 nM | 100 to 5000 nM | 100 to 5000 nM |  |  |  |
| Nc1ccc(/C=C/C(=O)NCc2cc3cc(-c4ccc(C(=O)N5CCC(F)(F)CC5)cc4)cc(-c4ccc(F)nc4)c3o2)cn1 [Compound 735, (E)-3-(6-aminopyridin-3-yl)-N-((5-(4-(4,4-difluoropiperidine-1-carbonyl)phenyl)-7-(6-fluoropyridin-3-yl)benzofuran-2-yl)methyl)acrylamide] |  |  |  | 100 to 5000 nM | < 100 nM | < 100 nM |
| COc1cc(-c2ccc(C(=O)N3CCOCC3)cn2)cc2cc(CNC(=O)/C=C/c3ccc(N)nc3)oc12 [Compound 640, (E)-3-(6-aminopyridin-3-yl)-N-((7-methoxy-5-(5-(morpholine-4-carbonyl)pyridin-2-yl)benzofuran-2-yl)methyl)acrylamide] | > 10000 nM | < 100 nM | < 100 nM |  |  |  |
